Assay results from BindingDB's records for doi:10.7270/Q2N014XN (Srmlsc, 2007).
Where a name gives a salt, the structure may show the parent alone.

Molecular target: T1, Diphosphomevalonate decarboxylase (Streptococcus pneumoniae serotype 2 (strain D39 / NCTC 7466), UniProt A0A0H2ZN59)
T1 sequence (A0A0H2ZN59 whole entry): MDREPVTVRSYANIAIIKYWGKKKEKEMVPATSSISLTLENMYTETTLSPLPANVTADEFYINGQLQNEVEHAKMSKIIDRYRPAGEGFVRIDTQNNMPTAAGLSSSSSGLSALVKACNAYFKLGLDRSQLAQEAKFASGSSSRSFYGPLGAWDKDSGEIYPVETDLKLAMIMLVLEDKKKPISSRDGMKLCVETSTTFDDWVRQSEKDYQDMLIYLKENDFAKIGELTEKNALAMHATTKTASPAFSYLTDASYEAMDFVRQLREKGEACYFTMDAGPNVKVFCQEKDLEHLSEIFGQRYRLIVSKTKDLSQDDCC
Assay: diphosphomevalonate decarboxylase inhibition dose curves – biochemical, PK/LDH-coupled NADH fluorescence, hexokinase coupling counter-screen, dose response (AID 550)
Details: not given

Row | SMILES | IC50
1 | O=c1c2ccccc2sn1-c1ccc(S(=O)(=O)N2CCCCC2)cc1 [2-(4-piperidin-1-ylsulfonylphenyl)-1,2-benzothiazol-3-one] | 2.15 µM
2 | c1ccc(N2CCN(c3cnccn3)CC2)nc1 [2-(4-pyridin-2-ylpiperazin-1-yl)pyrazine] | > 10000 µM
3 | O=c1c2ccccc2sn1-c1ccc(S(=O)(=O)N2CCCC2)cc1 [2-(4-pyrrolidin-1-ylsulfonylphenyl)-1,2-benzothiazol-3-one] | 2.65 µM
4 | Cc1cc(=O)oc2cc(OC(C)C(=O)O)c(Cl)cc12 (stereo not given) [2-(6-chloranyl-4-methyl-2-oxidanylidene-chromen-7-yl)oxypropanoic acid] | > 10000 µM
5 | Cc1ccc2oc(=O)c3cnn(CC(=O)NC4CCN(Cc5ccccc5)CC4)c3c2c1 [2-(8-methyl-4-oxidanylidene-chromeno[4,3-c]pyrazol-1-yl)-N-[1-(phenylmethyl)piperidin-4-yl]ethanamide] | > 10000 µM
6 | CCCCCn1c(SCC#N)nc2cc(C(=O)NCC3CCCO3)ccc2c1=O (stereo not given) [2-(cyanomethylsulfanyl)-4-oxidanylidene-N-(oxolan-2-ylmethyl)-3-pentyl-quinazoline-7-carboxamide] | > 10000 µM
7 | Cc1cc(C(=O)CSc2nnnn2-c2ccc(Cl)cc2)c(C)n1CC1CCCO1 (stereo not given) [2-[1-(4-chlorophenyl)tetrazol-5-yl]sulfanyl-1-[2,5-dimethyl-1-(oxolan-2-ylmethyl)pyrrol-3-yl]ethanone] | > 10000 µM
8 | Cc1cc(C)c2c(=O)n(CC(=O)N3CCC(Cc4ccccc4)CC3)sc2n1 [2-[2-(4-benzylpiperidin-1-yl)-2-oxoethyl]-4,6-dimethyl-[1,2]thiazolo[5,4-b]pyridin-3-one] | 221 µM
9 | O=C(CN1c2cccc3cccc(c23)S1(=O)=O)N1CCOCC1 [2-[2-(4-morpholinyl)-2-oxoethyl]-2H-naphtho[1,8-cd]isothiazole 1,1-dioxide] | 21.9 µM
10 | COC(=O)Cn1c(=NC(=O)CSC(C)=O)sc2ccccc21 [2-[2-[2-(acetylthio)-1-oxoethyl]imino-1,3-benzothiazol-3-yl]acetic acid methyl ester] | > 10000 µM
11 | COc1ccc(C(O)Cn2c(=N)n(CCCN(C)C)c3ccccc32)cc1 (stereo not given) [2-[2-azanylidene-3-[3-(dimethylamino)propyl]benzimidazol-1-yl]-1-(4-methoxyphenyl)ethanol;hydrochloride] | > 10000 µM
12 | COCCNC(=O)C(C#N)c1nc2ccccc2nc1N1CCCCCC1 (stereo not given) [2-[3-(1-azepanyl)-2-quinoxalinyl]-2-cyano-N-(2-methoxyethyl)acetamide] | 190 µM
13 | COc1ccc(-c2ccc(-c3nnc(-c4ccncc4)o3)cc2)cc1 [2-[4-(4-methoxyphenyl)phenyl]-5-(4-pyridyl)-1,3,4-oxadiazole] | 123 µM
14 | COC(=O)c1c(NC(=O)c2ccoc2C)sc2c1CCC2 [2-[(2-methyl-3-furoyl)amino]-5,6-dihydro-4H-cyclopenta[b]thiophene-3-carboxylic acid methyl ester] | 98.9 µM
15 | CCOC(=O)CSc1cc(=O)n(C)c2cc(Cl)ccc12 [2-[(7-chloro-1-methyl-2-oxo-4-quinolinyl)thio]acetic acid ethyl ester] | > 10000 µM
16 | CCOC(=O)c1sc2nc(SCC(=O)NCc3ccco3)n(Cc3ccccc3)c(=O)c2c1C [2-[[2-(2-furanylmethylamino)-2-oxoethyl]thio]-5-methyl-4-oxo-3-(phenylmethyl)-6-thieno[2,3-d]pyrimidinecarboxylic acid ethyl ester] | 84.7 µM
17 | COC(=O)c1ccccc1NC(=O)c1ccc2c(c1)C(=O)N(Cc1ccco1)C2=O [2-[[2-(2-furfuryl)-1,3-diketo-isoindoline-5-carbonyl]amino]benzoic acid methyl ester] | 53.9 µM

Row | SMILES | IC50
18 | C=C(C)Cn1c(COc2ccccc2)nnc1SCC(=O)O [2-[[4-(2-methylallyl)-5-(phenoxymethyl)-1,2,4-triazol-3-yl]thio]acetic acid] | > 10000 µM
19 | Cc1ccc2nc(-c3ccc(SCC(=O)O)nc3)[nH]c2c1 [2-[[5-(6-methyl-1H-benzimidazol-2-yl)-2-pyridinyl]thio]acetic acid] | 9.87 µM
20 | OCCNc1ncnc2c1c(-c1ccccc1)c(-c1ccccc1)n2Cc1ccco1 [2-[[7-(2-furanylmethyl)-5,6-diphenyl-4-pyrrolo[2,3-d]pyrimidinyl]amino]ethanol] | > 10000 µM
21 | CC(C)(O)P(C)(=O)c1ccccc1 (stereo not given) [2-[methyl(phenyl)phosphoryl]-2-propanol] | > 10000 µM
22 | Nc1c(C(=O)NCCN2CCOCC2)c2nc3ccccc3nc2n1-c1ccc2c(c1)OCO2 [2-amino-1-(1,3-benzodioxol-5-yl)-N-(2-morpholin-4-ylethyl)pyrrolo[3,2-b]quinoxaline-3-carboxamide] | 87.4 µM
23 | Nc1c(C(=O)NC2CCCC2)c2nc3ccccc3nc2n1N=Cc1cccnc1 [2-amino-N-cyclopentyl-1-(3-pyridinylmethylideneamino)-3-pyrrolo[3,2-b]quinoxalinecarboxamide] | 17.1 µM
24 | Cc1ccc(S(=O)(=O)c2cc3c(=O)n4ccccc4nc3n(CC3CCCO3)c2=N)cc1C (stereo not given) [2-azanylidene-3-(3,4-dimethylphenyl)sulfonyl-1-(oxolan-2-ylmethyl)dipyrido[1,2-d:3',4'-f]pyrimidin-5-one] | 43.6 µM
25 | CCOC(=O)C(Cc1ccccc1)C(=O)Nc1nccs1 (stereo not given) [2-benzyl-3-keto-3-(thiazol-2-ylamino)propionic acid ethyl ester] | > 10000 µM
26 | N#CC(C(=O)NC1CCCCC1)c1nc2ccccc2nc1N1CCCCC1 (stereo not given) [2-cyano-N-cyclohexyl-2-(3-piperidin-1-ylquinoxalin-2-yl)acetamide] | > 10000 µM
27 | CCOc1ncccc1C(=O)Nc1ccc2c(C)cc(=O)oc2c1 [2-ethoxy-N-(2-keto-4-methyl-chromen-7-yl)nicotinamide] | > 10000 µM
28 | Cn1c(SCC(=O)N2CCOCC2)nnc1-c1ccc(NC(=O)c2ccccc2F)cc1 [2-fluoranyl-N-[4-[4-methyl-5-(2-morpholin-4-yl-2-oxidanylidene-ethyl)sulfanyl-1,2,4-triazol-3-yl]phenyl]benzamide] | > 10000 µM
29 | CCOC(=O)c1c(CC(C)C)csc1NC=O [2-formamido-4-(2-methylpropyl)-3-thiophenecarboxylic acid ethyl ester] | > 10000 µM
30 | COc1ccc(-c2nsc3c(N4CCN(C(=O)c5ccco5)CC4)ncnc23)cc1 [2-furanyl-[4-[3-(4-methoxyphenyl)-7-isothiazolo[4,5-d]pyrimidinyl]-1-piperazinyl]methanone] | 131 µM
31 | CCOC(=O)c1cc2c(=O)n3cccc(C)c3nc2n(CCc2ccccc2)c1=N [2-imino-10-methyl-5-oxo-1-(2-phenylethyl)-3-dipyrido[3,4-c:1',2'-f]pyrimidinecarboxylic acid ethyl ester] | 27.2 µM
32 | CCOC(=O)c1cc2c(=O)n3ccccc3nc2n(C(C)C)/c1=N\C(=O)c1ccncc1 [2-isonicotinoylimino-1-isopropyl-5-keto-dipyrido[1,2-d:3',4'-f]pyrimidine-3-carboxylic acid ethyl ester] | 15.2 µM
33 | COCCOC(=O)c1c(C)oc2ccc(NS(=O)(=O)c3ccc(F)cc3)cc12 [2-methoxyethyl 5-[(4-fluorophenyl)sulfonylamino]-2-methyl-1-benzofuran-3-carboxylate] | > 10000 µM

Same assay, conditions: inactive by the depositor's call

Row | SMILES | IC50
34 | O=c1cccccc1NCc1ccccc1 [2-(benzylamino)cyclohepta-2,4,6-trien-1-one] | 278 µM
35 | O=c1c2ccccc2[se]n1-c1ccccc1 [2-Phenyl-benzo[d]isoselenazol-3-one] | 0.513 µM
